Measurements published in PubChem BioAssay AID1963442 (Molecular Pharmacology Branch, DTP, NCI, 2024).

Tested on: MPNST complex spheroid with HUVEC/MSC, growth, % test/control
Experiment: Anticancer human tumor MPNST cell line growth inhibition [Asc];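 also: compounds left on spheroids for seven days before reading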
Details: for IC50: curve of first compound; for viability, T/C: stronger effect = lower value
How it was run: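 Complex spheroids combining tumor cells with HUVEC endothelial cells and human MSCs, at 37 degrees C, 5% CO2; agents tested alone or combined, half-log dilutions from at or near clinical Cmax, or 10 microM if Cmax unknown.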

[1] = second compound 0.1 µM, first compound 0.0316 µM
[2] = second compound 0.1 µM, first compound 0.1 µM
[3] = second compound 0.1 µM, first compound 0.316 µM
[4] = second compound 0.1 µM, first compound 1 µM
[5] = second compound 0.316 µM, first compound 0.0316 µM
[6] = second compound 0.316 µM, first compound 0.1 µM
[7] = second compound 0.316 µM, first compound 0.316 µM
[8] = second compound 0.316 µM, first compound 1 µM
[9] = second compound 1 µM, first compound 0.0316 µM
[10] = second compound 1 µM, first compound 0.1 µM
[11] = second compound 1 µM, first compound 0.316 µM
[12] = second compound 1 µM, first compound 1 µM

`C=CC(=O)N1CCN(c2nc(=O)n(-c3c(C)ccnc3C(C)C)c3nc(-c4c(O)cccc4F)c(F)cc23)C(C)C1` (configuration not stated) + Cc1c(S(C)(=O)=O)c(-c2cc(F)cc(N3CCN(c4ccc(NS(=O)(=O)c5ccc(NC(CCN6CCC(C(=O)OCCCP(=O)(O)O)CC6)CSc6ccccc6)c(S(=O)(=O)C(F)(F)F)c5)cc4)CC3)c2)c(-c2ccc(Cl)cc2)n1C(C)C showed an IC50 (second compound 0.1 µM) greater than 10 µM, an IC50 (second compound 0.316 µM) greater than 10 µM and an IC50 (second compound 1 µM) greater than 10 µM. It also gave an IC50 (second compound 3.16 µM) greater than 10 µM, an IC50 (second compound 10 µM) greater than 10 µM and a viability, T/C [1] of 71.9%. For the same compound, the viability, T/C [2] was 74.7%, the viability, T/C [3] was 84.2% and the viability, T/C [4] was 96.2%. For the same compound, the viability, T/C (second compound 0.1 µM, first compound 3.16 µM) was 93.4%, the viability, T/C (second compound 0.1 µM, first compound 10 µM) was 105% and the viability, T/C [5] was 79.4%. For the same compound, the viability, T/C [6] was 93.8%, the viability, T/C [7] was 76.7% and the viability, T/C [8] was 88.9%. The viability, T/C (second compound 0.316 µM, first compound 3.16 µM) was 85.7%, the viability, T/C (second compound 0.316 µM, first compound 10 µM) was 108% and the viability, T/C [9] was 90.8%. It also gave a viability, T/C [10] of 85.1%, a viability, T/C [11] of 89.8% and a viability, T/C [12] of 89.9%. The viability, T/C (second compound 1 µM, first compound 3.16 µM) was 101%, the viability, T/C (second compound 1 µM, first compound 10 µM) was 118% and the viability, T/C (second compound 3.16 µM, first compound 0.0316 µM) was 66.5%. For the same compound, the viability, T/C (second compound 3.16 µM, first compound 0.1 µM) was 88%, the viability, T/C (second compound 3.16 µM, first compound 0.316 µM) was 84.6% and the viability, T/C (second compound 3.16 µM, first compound 1 µM) was 99%. The viability, T/C (second compound 3.16 µM, first compound 3.16 µM) was 100%, the viability, T/C (second compound 3.16 µM, first compound 10 µM) was 99% and the viability, T/C (second compound 10 µM, first compound 0.0316 µM) was 83.5%. For the same compound, the viability, T/C (second compound 10 µM, first compound 0.1 µM) was 91.2%, the viability, T/C (second compound 10 µM, first compound 0.316 µM) was 83.8% and the viability, T/C (second compound 10 µM, first compound 1 µM) was 97.1%. For the same compound, the viability, T/C (second compound 10 µM, first compound 3.16 µM) was 115% and the viability, T/C (second compound 10 µM, first compound 10 µM) was 115%.
`C=C(F)C(=O)N1CCN(c2nc(OCC3CCCN3C)nc3c2CCN(c2cccc4cccc(Cl)c24)C3)CC1CC#N` (configuration not stated) + CCN1C(C(=O)NC23CCC(C(=O)O)(CC2)CC3)C(c2cccc(Cl)c2F)C2(C(=O)Nc3cc(Cl)ccc32)C12CCCCC2 showed an IC50 (second compound 0.03 µM) greater than 10 µM, an IC50 (second compound 0.0949 µM) greater than 10 µM and an IC50 (second compound 0.3 µM) greater than 10 µM. It also gave an IC50 (second compound 0.949 µM) greater than 10 µM, an IC50 (second compound 3 µM) of 3.89 µM and a viability, T/C (second compound 0.03 µM, first compound 0.0316 µM) of 56.3%. The viability, T/C (second compound 0.03 µM, first compound 0.1 µM) was 61.1%, the viability, T/C (second compound 0.03 µM, first compound 0.316 µM) was 65.2% and the viability, T/C (second compound 0.03 µM, first compound 1 µM) was 63.1%. It also gave a viability, T/C (second compound 0.03 µM, first compound 3.16 µM) of 72.9%, a viability, T/C (second compound 0.03 µM, first compound 10 µM) of 65.6% and a viability, T/C (second compound 0.0949 µM, first compound 0.0316 µM) of 87.5%. It also gave a viability, T/C (second compound 0.0949 µM, first compound 0.1 µM) of 59%, a viability, T/C (second compound 0.0949 µM, first compound 0.316 µM) of 77.5% and a viability, T/C (second compound 0.0949 µM, first compound 1 µM) of 75.6%. The viability, T/C (second compound 0.0949 µM, first compound 3.16 µM) was 67%, the viability, T/C (second compound 0.0949 µM, first compound 10 µM) was 66.2% and the viability, T/C (second compound 0.3 µM, first compound 0.0316 µM) was 92.4%. The viability, T/C (second compound 0.3 µM, first compound 0.1 µM) was 85.3%, the viability, T/C (second compound 0.3 µM, first compound 0.316 µM) was 106% and the viability, T/C (second compound 0.3 µM, first compound 1 µM) was 63.6%. For the same compound, the viability, T/C (second compound 0.3 µM, first compound 3.16 µM) was 82.8%, the viability, T/C (second compound 0.3 µM, first compound 10 µM) was 68.8% and the viability, T/C (second compound 0.949 µM, first compound 0.0316 µM) was 88.5%. It also gave a viability, T/C (second compound 0.949 µM, first compound 0.1 µM) of 80.3%, a viability, T/C (second compound 0.949 µM, first compound 0.316 µM) of 97.5% and a viability, T/C (second compound 0.949 µM, first compound 1 µM) of 62.1%. It also gave a viability, T/C (second compound 0.949 µM, first compound 3.16 µM) of 55.4%, a viability, T/C (second compound 0.949 µM, first compound 10 µM) of 57% and a viability, T/C (second compound 3 µM, first compound 0.0316 µM) of 84.8%. For the same compound, the viability, T/C (second compound 3 µM, first compound 0.1 µM) was 74.8%, the viability, T/C (second compound 3 µM, first compound 0.316 µM) was 73% and the viability, T/C (second compound 3 µM, first compound 1 µM) was 60.8%. It also gave a viability, T/C (second compound 3 µM, first compound 3.16 µM) of 50.8% and a viability, T/C (second compound 3 µM, first compound 10 µM) of 42.7%.
`O=C(c1ccc(F)c(F)c1Nc1ccc(I)cc1F)N1CC(O)([C@@H]2CCCCN2)C1` + CNC(C)C(=O)NC1CN(S(=O)(=O)c2cccc(S(=O)(=O)N3CCC4CCC(C(=O)NC(c5ccccc5)c5ccccc5)N4C(=O)C(NC(=O)C(C)NC)C3)c2)CCC2CCC(C(=O)NC(c3ccccc3)c3ccccc3)N2C1=O gave an IC50 (second compound 0.00316 µM) of 0.472 µM, an IC50 (second compound 0.01 µM) of 0.781 µM and an IC50 (second compound 0.0316 µM) of 0.858 µM. The IC50 (second compound 0.1 µM) was 0.922 µM, the IC50 (second compound 0.316 µM) was 0.868 µM and the IC50 (second compound 1 µM) was 0.892 µM. It also gave a viability, T/C (second compound 0.00316 µM, first compound 0.00316 µM) of 71%, a viability, T/C (second compound 0.00316 µM, first compound 0.01 µM) of 46.5% and a viability, T/C (second compound 0.00316 µM, first compound 0.0316 µM) of 82.4%. For the same compound, the viability, T/C (second compound 0.00316 µM, first compound 0.1 µM) was 65.1%, the viability, T/C (second compound 0.00316 µM, first compound 0.316 µM) was 66.1% and the viability, T/C (second compound 0.00316 µM, first compound 1 µM) was 19.9%. The viability, T/C (second compound 0.01 µM, first compound 0.00316 µM) was 107%, the viability, T/C (second compound 0.01 µM, first compound 0.01 µM) was 103% and the viability, T/C (second compound 0.01 µM, first compound 0.0316 µM) was 131%. It also gave a viability, T/C (second compound 0.01 µM, first compound 0.1 µM) of 134%, a viability, T/C (second compound 0.01 µM, first compound 0.316 µM) of 108% and a viability, T/C (second compound 0.01 µM, first compound 1 µM) of 34.2%. It also gave a viability, T/C (second compound 0.0316 µM, first compound 0.00316 µM) of 108%, a viability, T/C (second compound 0.0316 µM, first compound 0.01 µM) of 88.7% and a viability, T/C (second compound 0.0316 µM, first compound 0.0316 µM) of 110%. For the same compound, the viability, T/C (second compound 0.0316 µM, first compound 0.1 µM) was 126%, the viability, T/C (second compound 0.0316 µM, first compound 0.316 µM) was 77.6% and the viability, T/C (second compound 0.0316 µM, first compound 1 µM) was 45.8%. For the same compound, the viability, T/C (second compound 0.1 µM, first compound 0.00316 µM) was 86.9%, the viability, T/C (second compound 0.1 µM, first compound 0.01 µM) was 89.1% and the viability, T/C [1] was 81.6%. The viability, T/C [2] was 90.5%, the viability, T/C [3] was 97.2% and the viability, T/C [4] was 47%. It also gave a viability, T/C (second compound 0.316 µM, first compound 0.00316 µM) of 69.7%, a viability, T/C (second compound 0.316 µM, first compound 0.01 µM) of 67.3% and a viability, T/C [5] of 65.5%. It also gave a viability, T/C [6] of 134%, a viability, T/C [7] of 87.7% and a viability, T/C [8] of 45%. It also gave a viability, T/C (second compound 1 µM, first compound 0.00316 µM) of 70.1%, a viability, T/C (second compound 1 µM, first compound 0.01 µM) of 80.1% and a viability, T/C [9] of 105%. The viability, T/C [10] was 113%, the viability, T/C [11] was 96% and the viability, T/C [12] was 45.2%.
